Data published in US20130303619A1, “Antibacterial Compositions” (priority 2009, published 2013).
“Also recorded” adds a separate entry of the source.

Experiments:
[1] = tested on: LL-37 expression by OBA9 cells; test: LL-37 expression by OBA9 cells with Sepharose-coupled benzoic acid isomers; assay type: cell-based, human; conditions: isomer coupled to NBS-activated Sepharose gel
Description: In order to investigate the structure-function relationship underlying EGCG-mediated induction of LL-37 from human gingival epithelial cell line OBA9, different isomers of benzoic acids are examined for their effects on the LL-37 expression by OBA9 cells. Each isomer of benzoic acids is coupled to NBS-activated Sepharose gel (Pierce) using a cross-linker, 1-Ethyl-3-[3-dimethylaminopropyl]carbodiimide (EDC, Pierce). The isomers of benzoic acids include 1) 2,6-di-hydroxy benzoic acid, 2) 2,3,4-tri-hydroxy benzoic acids, 3) 3,4,5-tri-hydroxy benzoic acids, and 4) 2,4,6-tri-hydroxy benzoic acids.

[2] = biological target: T1, DEAD box polypeptide 5 (DDX5) (Homo sapiens, UniProt P17844); test: Pull down assay with benzoic acid-coupled beads and OBA9 cell lysate, Mass-Spec; assay type: binding; conditions: beads incubated with OBA9 cell lysate
T1 construct: endogenous in cells; host or cells: OBA9 human gingival epithelial cell line (lysate)
Description: FIG. 1 is a schematic showing a pull down assay to determine counter ligand of benzoic acids expressed on OBA9 cells is DDX5. OBA9 cells were harvested and dissolved in lysis buffer. The resulting cell lysis solution was reacted with Sephadex beads conjugated with 2,6-dihydroxy benzoic acid (DHBC) and 2,3,4-trihydroxy benzoic acid (THBC). The cellular components pulled down with beads were separated in SDS-PAGE gel, and stained with Coomassie blue. The 35 kD and 70 kD bands specific to 2,3,4-THBC were subjected to Mass-Spec analysis at Tufts University Core Facility. The procedure for pull down assay includes preparation of cell lysate from gingival epithelial cell (OBA9) culture; preparation of beads conjugated with tri-hydroxy benzoic acid (THBC); incubation of beads with OBA9 cell lysate; remove unbound protein by washing beads; the proteins bound to beads are separated in SDS-PAGE; distinct bands to 2,3,4-THBC are sent for Mass-Spec service; and identification of molecular finger print of 2,3,4-THBC binding ligand.
FIG. 2 is a schematic including the molecular finger print found in 70 kD band specific to 2,3,4-THDC that is DDX5 (SEQ ID NO: 1). The 35 kD, 70 kD and 90 kD bands specific to 2,3,4-THBC were subjected to Mass-Spec analysis service. […] Result data sheet that identified DDX5 in 70 kD band is shown.
In order to confirm if LL-37 induction in epithelial cells by EGCG is dependent on the activation of cell ligand (either cytoplasm or cell surface), or previously known anti-oxidant effects by EGCG, 3,4,5-tri-hydroxy benzoic acid-coupled beads and control 2,6-di-hydroxy benzoic acid-coupled beads are utilized to pull down the possible ligand for 3,4,5-tri-hydroxy benzoic acid. After incubation of each bead with cell lysate of OBA9, the beads are washed, and the cellular materials that bind to the beads are separated in SDS-PAGE. At least 3 bands (MW 35 kD, 70 kD and 90 kD), which are distinct to 3,4,5-tri-hydroxy benzoic acid, are detected, as compared to the other beads (control, 2,6-di-hydroxy benzoic acid and control plain beads). […]

LL-37 from OBA9 cells = test: In vitro induction of LL-37 protein (ELISA) from OBA9 cells; assay type: cell-based, human; conditions: 20 ug/ml
Description: (§1) Using ELISA systems to detect LL-37 (Forsyth in-house) and hBD2 (Peprotech), 33 natural compounds (20 ug/ml) are examined for their ability to induce LL-37 and hBD2 from OBA9 cells. Although the sensitivity of the hBD2 ELISA is higher than that of LL-37 ELISA (10 pg/ml vs 1 ng/ml, respectively), the induction of LL-37 is more prominent than hBD2 (FIG. 2 A&B, LL-37; C&D, hBD2). […] Bactericidal effects of LL-37 and hBD2 are, in general, potent.
The trihydroxybenzoate derivatives of the Invention and rosemarinic acid, courmarin, catechin gallate, epicatechin gallate, epigallocatechin, and tannic acid are tested to induce LL-37 from OBA9 cells in the absence of EGCG.

hBD2 from OBA9 cells = test: In vitro induction of hBD2 protein (ELISA) from OBA9 cells; assay type: cell-based, human; conditions: 20 ug/ml
Description: as §1

[3] = tested on: LL-37 mRNA in cheek epithelial cells; test: In vivo LL-37 mRNA expression by human cheek epithelial cells after mouthwash (RT-PCR); conditions: mouthwash with EGCG (40 ug/ml), after only 5 minutes from application
Description: (§2) Cheek epithelium is utilized for monitoring LL-37 mRNA and protein expression to determine if Trihydroxybenzoate Derivatives of the Invention can induce LL-37 in vivo. […] The isolated cheek cells are also subjected to Western blot analysis for protein expression of LL-37 by cheek epithelium using anti-LL-37 monoclonal antibody. The expression of both the proform (18 kD, also termed as hCAP18) and secreted form (4.5 kD) of LL-37 (12) in cheek epithelial cells is induced by Trihydroxybenzoate Derivatives of the Invention (e.g., EGCG (95% SIGMA), or by EGCG (90% Teavigo)).

[4] = tested on: LL-37 mRNA expression in OBA9 cells; test: LL-37 mRNA expression in human gingival epithelial cells; assay type: cell-based; conditions: 4-hour exposure, 0.1, 1.0 and 10 ug/ml
Description: (§3) Both LL-37 and hBD2 mRNA expression in OBA9 cells are induced after a 4-hour exposure to green tea polyphenol extract, Teaflan 90S (EGCG 50%, ECG 13%), and purified EGCG (95% pure, SIGMA) at concentrations of 0.1, 1.0 and 10 ug/ml. EGCG increases the production of LL-37 and hBD2 at the mRNA level in the human gingival epithelial cell line OBA9 (FIG. 1) as well as the human lung carcinoma cell line A549.

[5] = tested on: hBD2 mRNA expression in OBA9 cells; test: hBD2 mRNA expression in human gingival epithelial cells; assay type: cell-based; conditions: 4-hour exposure, 0.1, 1.0 and 10 ug/ml
Description: as §3

LL37 mRNA in OBA9 cells = test: EGCG-induced LL37 mRNA expression in OBA9 cells with or without DDX5 RNAi (RT-PCR); assay type: cell-based, human; conditions: EGCG 40 ng/ml, 30 minutes
Description: (§4) Our hypothesis that THBC induction of LL-37 expression is mediated via binding to DDX5 is further supported by the finding that inhibition of DDX5 expression in gingival epithelial cells (OBA9) reduces EGCG-mediated LL-37 expression. Confluent OBA9 cells in a tissue culture plate are treated with or without DDX5-specific siRNA sequences (three different siRNA sequences specific to DDX5 are examined). After 24 h and 48 h incubation, total RNA and proteins are extracted, respectively, from the OBA9 cells. […] The OBA9 cells pre-incubated with non-target siRNA and DDX5-siRNA for 48 hours are restimulated with EGCG (40 ng/ml) for 30 min, and mRNA expression for LL-37 and […] was detected by RT-PCR. […] Effects of DDX5-siRNA treatment on EGCG-mediated LL-37 protein expression by OBA9 cells is measured by ELISA.
After treatment of OBA9 cells with control non-target siRNA or DDX5-siRNA (#A) for 48 hours, the OBA9 cells were incubated with or without EGCG (40 ng/ml) for 30 minutes. The total RNA isolated from the OBA9 cells was subjected to RT-PCR for LL37 mRNA as well as internal control β-actin mRNA.

[6] = tested on: Actinobacillus actinomycetemcomitans Y4 (Aa Y4); test: Bactericidal effect of culture supernatant of treated OBA9 cells; assay type: cell-based; conditions: 20 ug/ml; compared with non-treated, catechin- or 2,4-dihydroxy benzoic acid-treated OBA9 supernatant
Description: The culture supernatant isolate from OBA9 is treated with 1) EGCG, 2) catechin, 3) 2,4-dihydroxy benzoic acid, and 4) 3,4,5-tri-hydroxy benzoic acid (20 ug/ml, respectively) and examined for their bactericidal effects on Actinobacillus actinomycetemcomitans Y4 (Aa Y4).

[7] = tested on: LL37 protein in OBA9 cells; test: EGCG-induced LL37 protein expression in OBA9 cells with or without DDX5 RNAi (ELISA); assay type: cell-based, human; conditions: OBA9 culture supernatant, EGCG 40 ng/ml, 30 min to 24 hours
Description: as §4
The OBA9 cells which were pre-treated with control non-target siRNA or DDX5-siRNA (#A) for 48 hours, as shown in 1-B, were incubated with EGCG (40 ng/ml) for different periods from 30 min to 24 hours. The supernatant harvested from the OBA9 cell culture was subjected to ELISA for LL37 protein.

hBD2 mRNA in A549 = test: hBD2 mRNA level in lung carcinoma cell line; assay type: cell-based; conditions: human lung carcinoma cell line A549
Description: as §3

LL-37 mRNA in A549 = test: LL-37 mRNA level in lung carcinoma cell line; assay type: cell-based; conditions: human lung carcinoma cell line A549
Description: as §3

LL-37 in OBA9 cells = test: EGCG-induced LL-37 (ELISA) in OBA9 cells over expressing DDX5; assay type: cell-based, human; conditions: EGCG 40 ng/ml, 2 hours
Description: The OBA9 cells transfected with either DDX5 over-expression vector (pK0203) or control empty vector (pKO108) were cultured for 48 h. Thereafter, the OBA9 cells were incubated with or without EGCG (40 ng/ml) for 2 hours, and the culture supernatant was subjected to ELISA for the detection of LL-37.

[8] = tested on: LL-37 protein in cheek epithelial cells; test: LL-37 protein expression by cheek epithelium (Western blot); assay type: in vivo, human; conditions: isolated cheek cells, anti-LL-37 monoclonal antibody
Description: as §2

T1 sequence (P17844 whole entry): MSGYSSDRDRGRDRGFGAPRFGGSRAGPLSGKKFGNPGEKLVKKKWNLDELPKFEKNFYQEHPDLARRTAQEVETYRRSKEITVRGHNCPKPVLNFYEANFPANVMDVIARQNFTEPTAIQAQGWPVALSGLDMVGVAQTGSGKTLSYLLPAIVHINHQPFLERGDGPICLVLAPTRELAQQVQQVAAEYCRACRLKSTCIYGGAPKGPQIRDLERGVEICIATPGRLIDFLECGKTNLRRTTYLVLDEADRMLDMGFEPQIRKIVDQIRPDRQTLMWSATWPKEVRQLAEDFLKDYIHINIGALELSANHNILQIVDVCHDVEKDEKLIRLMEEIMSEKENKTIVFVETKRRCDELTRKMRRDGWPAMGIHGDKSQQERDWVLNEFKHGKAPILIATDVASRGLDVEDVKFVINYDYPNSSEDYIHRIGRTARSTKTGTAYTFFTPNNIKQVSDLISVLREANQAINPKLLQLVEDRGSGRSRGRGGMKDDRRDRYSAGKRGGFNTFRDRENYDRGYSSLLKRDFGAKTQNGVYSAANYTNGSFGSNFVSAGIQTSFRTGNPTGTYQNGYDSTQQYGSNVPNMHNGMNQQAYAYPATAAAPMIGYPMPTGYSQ

O=C(O)c1ccc(O)c(O)c1O [2,3,4-tri-hydroxy benzoic acids, 2,3,4-trihydroxybenzoic acid]
induction of LL-37 expression by OBA9 cells [1]: show the induction of LL-37 expression | binding to DDX5 (pull down, 70 kD band) [2]: only found in 2,3,4-THDC beads

O=C(/C=C/c1ccc(O)c(O)c1)O[C@H](Cc1ccc(O)c(O)c1)C(=O)O [Rosemarinic acid]
induction of LL-37 (ELISA) (LL-37 from OBA9 cells): little or no induction

CCCCCCCCCCCCCC(=O)O[C@@H]1[C@@H](C)[C@@]2(O)[C@@H](C=C(CO)C[C@]3(O)C(=O)C(C)=C[C@@H]23)[C@@H]2C(C)(C)[C@]12OC(C)=O [PMA]
induction of LL-37 (ELISA) (LL-37 from OBA9 cells): induced LL-37 | induction of hBD2 (ELISA) (hBD2 from OBA9 cells): minimal induction activities

O=C(O[C@@H]1Cc2c(O)cc(O)cc2O[C@@H]1c1cc(O)c(O)c(O)c1)c1cc(O)c(O)c(O)c1 [EGCG, epigallocatechin gallate]
LL-37 mRNA expression by cheek epithelial cells (RT-PCR) [3]: up-regulated | LL-37 mRNA expression [4]: induced | hBD2 mRNA expression [5]: induced | LL37 mRNA expression induced by EGCG (LL37 mRNA in OBA9 cells): induced | bactericidal effects of culture supernatant of treated OBA9 cells on Aa Y4 [6]: more bactericidal effects | LL37 protein expression after EGCG stimulation (ELISA) [7]: detected as early as 30 min until 24 hours; also recorded: increased in a time dependent manner | production of hBD2 at the mRNA level (hBD2 mRNA in A549): increases | production of LL-37 at the mRNA level (LL-37 mRNA in A549): increases | binding to DDX5 (pull down, 70 kD band) [2]: binds to DDX5 | LL-37 expression induced by EGCG (ELISA) (LL-37 in OBA9 cells; OBA9 with no vector, empty vector pK0108 or pK0203): induced the LL-37 expression in all three conditions | LL-37 expression induced by EGCG in OBA9 transfected with DDX5 over-expression vector versus no vector or empty vector (LL-37 in OBA9 cells; P<0.05, Student t test): significantly higher | expression of proform (18 kD) and secreted form (4.5 kD) of LL-37 in cheek epithelial cells (Western blot) [8]: induced

O=C(O)c1c(O)cc(O)cc1O [2,4,6-tri-hydroxy benzoic acids, reference compound]
induction of LL-37 expression by OBA9 cells [1]: not

O=C(O[C@@H]1Cc2c(O)cc(O)cc2O[C@@H]1c1cc(O)c(O)c(O)c1)c1cc(O)c(O)c(O)c1 [EGCG (90% Teavigo)]
expression of proform (18 kD) and secreted form (4.5 kD) of LL-37 in cheek epithelial cells (Western blot) [8]: induced

Poly IC
induction of LL-37 (ELISA) (LL-37 from OBA9 cells): induced LL-37 | induction of hBD2 (ELISA) (hBD2 from OBA9 cells): minimal induction activities

O=C(O)c1cc(O)c(O)c(O)c1 [3,4,5-tri-hydroxy benzoic acid, 3,4,5-trihydroxybenzoic acid]
induction of LL-37 (ELISA) (LL-37 from OBA9 cells): more potent than 3,4,-dihydroxy benzoate | bactericidal effects of culture supernatant of treated OBA9 cells on Aa Y4 [6]: more bactericidal effects | induction of LL-37 expression by OBA9 cells [1]: show the induction of LL-37 expression | binding to DDX5 (pull down, 70 kD band) [2]: binds to DDX5 expressed in gingival epithelial cells with high affinity

O=c1ccc2ccccc2o1 [courmarin]
induction of LL-37 (ELISA) (LL-37 from OBA9 cells): little or no induction

O=C(O)c1c(O)cccc1O [2,6-di-hydroxy benzoic acids, 2,6-dihydroxy benzoic acid, reference compound]
induction of LL-37 expression by OBA9 cells [1]: not
